According to BindingDB's records for doi:10.1021/jm000209n (Tohoku University, 2000):
pEC50: −log10 of the molar value.

Experiments:
[1] = Tested in vitro against HIV-1 LAI from MT-4 cells using MTT assay
[2] = Tested in vitro against HIV-1 MDR using MAGI assay

| Structure (SMILES) | pEC50 [1] | pEC50 [2] |
| --- | --- | --- |
| C#C[C@]1(CO)O[C@@H](n2cc(Cl)c(=O)[nH]c2=O)C[C@H]1O | 5.22 | – |
| C#C[C@]1(CO)O[C@@H](n2cc(F)c(=O)[nH]c2=O)C[C@H]1O | < 5.00 | – |
| C#C[C@]1(CO)O[C@@H](n2cc(CC)c(=O)[nH]c2=O)C[C@H]1O | < 3.44 | – |
| C#C[C@]1(CO)O[C@@H](n2cc(Br)c(=O)[nH]c2=O)C[C@H]1O | 5.64 | – |
| C#C[C@]1(CO)O[C@@H](n2cc(I)c(=O)[nH]c2=O)C[C@H]1O [1-(5-Ethynyl-4-hydroxy-5-hydroxymethyl-tetrahydro-furan-2-yl)-5-iodo-1H-pyrimidine-2,4-dione] | 6.47 | 6.21 |
| C#C[C@]1(CO)O[C@@H](n2cc(C)c(=O)[nH]c2=O)C[C@H]1O [1-(5-Ethynyl-4-hydroxy-5-hydroxymethyl-tetrahydro-furan-2-yl)-5-methyl-1H-pyrimidine-2,4-dione] | 6.21 | 6.62 |
| Cc1cn([C@H]2C[C@H](N=[N+]=[N-])[C@@H](CO)O2)c(=O)[nH]c1=O [1-((2R,4S,5S)-4-Azido-5-hydroxymethyl-tetrahydro-furan-2-yl)-5-methyl-1H-pyrimidine-2,4-dione] | 7.42 | 4.60 |
| C#C[C@]1(CO)O[C@@H](n2cnc3c(=O)[nH]c(N)nc32)C[C@H]1O [2-Amino-9-(5-ethynyl-4-hydroxy-5-hydroxymethyl-tetrahydro-furan-2-yl)-9H-purin-6-ol] | 8.85 | – |
| C#C[C@]1(CO)O[C@@H](n2cnc3cncnc32)C[C@H]1O [2-Ethynyl-2-hydroxymethyl-5-purin-9-yl-tetrahydro-furan-3-ol] | 3.93 | 3.84 |
| C#C[C@]1(CO)O[C@@H](n2ccc(N)nc2=O)C[C@H]1O [4-Amino-1-(5-ethynyl-4-hydroxy-5-hydroxymethyl-tetrahydro-furan-2-yl)-1H-pyrimidin-2-one] | 8.32 | 8.82 |
| C#C[C@]1(CO)O[C@@H](n2cc(F)c(N)nc2=O)C[C@H]1O [4-Amino-1-(5-ethynyl-4-hydroxy-5-hydroxymethyl-tetrahydro-furan-2-yl)-5-fluoro-1H-pyrimidin-2-one] | 7.52 | 8.05 |
| C#C[C@]1(CO)O[C@@H](n2cc(C)c(N)nc2=O)C[C@H]1O [4-Amino-1-(5-ethynyl-4-hydroxy-5-hydroxymethyl-tetrahydro-furan-2-yl)-5-methyl-1H-pyrimidin-2-one] | 7.96 | 8.35 |
| C#C[C@]1(CO)O[C@@H](n2cnc3c(N)nc(N)nc32)C[C@H]1O [5-(2,6-Diamino-purin-9-yl)-2-ethynyl-2-hydroxymethyl-tetrahydro-furan-3-ol] | 9.52 | 8.89 |
| C#C[C@]1(CO)O[C@@H](n2cnc3c(N)ncnc32)C[C@H]1O [5-(6-Amino-purin-9-yl)-2-ethynyl-2-hydroxymethyl-tetrahydro-furan-3-ol] | 7.92 | – |
| C#C[C@]1(CO)O[C@@H](n2cnc3c(=O)[nH]cnc32)C[C@H]1O [9-(5-Ethynyl-4-hydroxy-5-hydroxymethyl-tetrahydro-furan-2-yl)-9H-purin-6-ol] | 6.82 | 6.19 |
